{"source": "patent US9539341B2", "about": "“Methods and compositions for targeting adipose cells in mammals” (Board of Regents, the University of Texas System, priority 2011, dated 2017)", "key": {"[1]": {"test_system": "CD34+CD31−CD45− cells (MSC) from WAT", "experiment": "Synchronous in vivo phage display biopanning, clones recovered from WAT MSC (ASC)", "design": "species or system mouse", "conditions": "percent of sequenced phage clones carrying the insert in WAT after 4 rounds of synchronous in vivo biopanning on CD34+CD31−CD45− cells", "description": "(§1) Phage Library Screening: Random peptide libraries based on the M13-derived bacteriophage vector fUSE5 displaying inserts CX7C, CX8C, and CX9C on the pIII protein were admixed (1:1:1) to the combined 10^10 TU of mixed library for the screen performed based on the synchronous biopanning in vivo upon tail vein injection (see for example, US20050074747 and Arap, et al., Nat. Med. 8:121-127, 2002; Kolonin, et al., FASEB J. 20: 979-981, 2006).\n(§2) For competitive homing experiment, 5×10^9 TU for each of the 11 chosen phage clones were admixed and the combined 5.5×10^10 TU was injected. For validation of individual clones, 1×10^10 TU for each phage clones was injected. After 1 hr of circulation and heart perfusion with 10 ml of phosphate buffer saline (PBS), WAT, tibia/femurs, bone-associated skeletal muscle, and lungs were collected. Bone marrow was isolated by flushing tibia/femurs. Hematopoietic and endothelial cells were depleted from cell suspensions of each organ by Dynabeads (Invitrogen) coated with anti-TER119, anti-CD31, and anti-CD45 antibodies (BD Biosciences), after which the remaining cells were processed by FACS to purify CD34+CD31−CD45− cells. Bound phage were recovered by infecting K91 E. coli, quantified by phage transforming unit (TU) counting, and processed for sequencing of the peptide-coding DNA as described in Arap, et al. 2002, ibid and Kolonin, et al., 2006, ibid. For identification of conserved peptide motifs, ClustalW2 software was used.\n(§3) Methods for isolation of MSC by fluorescence-activated cell sorting (FACS) from organ cell suspensions based on the C34+CD31−CD45− immunophenotype (FIG. 8B) were combined with phage display and optimized for ASC. By adapting the previously described “synchronous in vivo biopanning” method of (Kolonin et al., 2006, ibid), a mixture of cyclic CX7C, CX8C, and CX9C (C: disulfide-bonded cysteines; X: any amino acid) random peptide libraries was screened (FIG. 1A). This approach made it possible to select MSC probes from the pool of over 10^11 combinatorial peptides. Throughout the screen, progressive enrichment in the number of phage particles recovered on MSC from WAT, as well as from the chosen control organs: lung, bone marrow, and skeletal muscle (FIG. 1B) was observed.\n(§4) After 4 rounds of synchronous in vivo biopanning, eight CX7C and CX8C sequences repeatedly recovered from ASC with frequency above 1% were identified, which were termed WAT1 through WAT8 (see Table 1 below). In parallel, a matched number of peptide inserts homing to lung stromal cells (LSC) were sequenced as a control. None of the WAT-homing peptides were enriched in the lung. Four sequences repeatedly recovered in the lung with frequency above 1%, were termed LU1 through LU4 (see Table 1 below). […] Because the focus of this study is WAT-specific MSC, this clone was excluded from further analysis. Other selected peptides were subjected to an in vivo competition assay in order to identify those with the highest specificity of binding. Equal amounts of phage for the 11 clones displaying peptides WAT1 through WAT7 (SEQ ID NOS: 1-14) and LU1 through LU4 (SEQ ID NOS: 17-24) were admixed and injected into a mouse. Homing specificity of each clone was assessed by quantifying frequency of phage coding for each peptide selected on C34+CD31−CD45− cells isolated from either WAT or lung.\n(§5) Shown in Table 1 above are the percent (%) of the sequenced phage clones that carried the indicated WAT or LU insert present within WAT (% in WAT) or lung (% in LUNG) following 4 rounds of synchronous in vivo biopanning on CD34+CD31−CD45− cells."}, "[2]": {"test_system": "CD34+CD31−CD45− cells (MSC) from lung", "experiment": "Synchronous in vivo phage display biopanning, clones recovered from lung MSC (LSC)", "design": "species or system mouse", "conditions": "percent of sequenced phage clones carrying the insert in lung after 4 rounds of synchronous in vivo biopanning on CD34+CD31−CD45− cells", "description": "as §1, §2, §3, §4, §5"}, "[3]": {"test_system": "C34+CD31−CD45− cells isolated from WAT", "experiment": "In vivo competition (re-homing) assay of 11 admixed phage clones, WAT", "design": "species or system mouse", "conditions": "equal amounts of 11 phage clones mixed and injected; percent of sequenced clones on C34+CD31−CD45− cells from WAT", "description": "as §2, §4"}, "[4]": {"test_system": "C34+CD31−CD45− cells isolated from lung", "experiment": "In vivo competition (re-homing) assay of 11 admixed phage clones, lung", "design": "species or system mouse", "conditions": "equal amounts of 11 phage clones mixed and injected; percent of sequenced clones on C34+CD31−CD45− cells from lung", "description": "as §2, §4"}, "[5]": {"target": "T1, recombinant bacterially-purified full-length core mouse DCN (mDCN) (Mus musculus, UniProt P28654)", "T1 construct": "cloning fragments encoding amino acids 1-354 and 45-354 of mouse DCN cDNA (OriGene); His6; made in house", "T1 sequence (P28654 17-354)": "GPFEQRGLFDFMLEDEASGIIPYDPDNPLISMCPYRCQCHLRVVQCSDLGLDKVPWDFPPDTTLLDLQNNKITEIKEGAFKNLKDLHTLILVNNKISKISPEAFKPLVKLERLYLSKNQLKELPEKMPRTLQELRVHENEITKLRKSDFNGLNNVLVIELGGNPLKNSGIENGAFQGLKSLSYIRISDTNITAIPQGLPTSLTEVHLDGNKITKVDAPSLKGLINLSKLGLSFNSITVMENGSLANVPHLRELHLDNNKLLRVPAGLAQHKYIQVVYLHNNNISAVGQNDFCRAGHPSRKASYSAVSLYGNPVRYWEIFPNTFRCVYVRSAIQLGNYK", "experiment": "ELISA binding assay, recombinant full-length core mouse DCN", "conditions": "His6-tagged protein coated at 10 μg/ml", "description": "(§6) Immunoblotting and Binding Assays: Protein preparations resolved on SDS-PAGE were blotted onto Immobilon-FL membrane (Millipore), blocked with Odyssey blocking buffer (Licor Biosciences), and probed (in PBS/0.05% Triton X-100) with goat anti-DCN (R&D Systems, 1:1,000), rabbit anti-ANX2A (Aviva, 1:1,000), rabbit anti-mouse b-actin (Abcam, 1:10,000) antibodies, or pre- and post-immune antisera against WAT7 (1:1,000) as indicated. Signal was detected by Odyssey imaging system using anti-goat IRDye 800CW or anti-rabbit IRDye 680 both from Licor Biosciences. Bovine DCN was from Sigma-Aldrich, NS0-derived murine DCN was from R&D Systems. Murine DCN cDNA was generated from WAT total RNA using SuperScript kit (Invitrogen). For bacterial expression, full-length mouse core DCN and ΔDCN isoforms were produced by cloning fragments encoding amino acids 1-354 and 45-354 of mouse DCN cDNA (OriGene) or of CLIC4 cDNA (OriGene) in-frame with the His6Tag into pET28a vector, respectively. His6-tagged proteins were purified with His-Tag kit (Novagen). […] Bound peptides or FLAG-resistin were probed with corresponding rabbit anti-peptide Genemed antibodies (1:2,000) or rabbit anti-FLAG antibodies (Sigma-Aldrich, 1:2,000) followed by secondary goat anti-rabbit HRP-conjugated antibodies (Millipore, 1:5,000) and signal detection with Ultra-TMB (Pierce) substrate and measurement of absorbance at 450 nm. […]"}, "[6]": {"test_system": "cells from the kidney or peripheral blood", "experiment": "In vivo apoptosis in non-target tissues, APO-TRACE and flow cytometry", "design": "species or system mice", "conditions": "2 mg injected, 48 hrs", "description": "FIG. 15 illustrates that apoptosis induced by treatment with cytotoxic WAT7-KLAKLAK2 (SEQ ID NO:13-SEQ ID NO:31) all-D-peptide was limited to target tissue. APO-TRACE reagent (Sigma) and flow cytometry were used to detect apoptosis induction in both subcutaneous and intraperitoneal WAT cells, but not in cells from the kidney or peripheral blood.\n(§7) In some embodiments targeting peptides selective for angiogenic vasculature in adipose tissue could be used to treat obesity associated disorders, for example for weight reduction or for preventing weight gain. […] Because brown adipose tissue more vascularized, a vasculature based targeting approach would be very effective for delivery of therapeutic reagents to BAT for activation of this tissue.\n(§8) This reduction was due to the targeted depletion of ASC through apoptotic cell death as evidenced at 48 hrs after injection (see FIG. 14)."}, "[7]": {"experiment": "Maximal tolerable dose (MTD) with increasing peptide doses", "type": "in vivo, mice", "description": "as §7\nWhen the therapeutic treatment of adipose associated body composition or body weight disorders such as obesity, lypodystrophy, diabetes or metabolic syndrome, fibrosis and cancer is contemplated, the appropriate dosage may also be determined using animal studies to determine the maximal tolerable dose, or MTD, of a bioactive agent per kilogram weight of the test subject. In general, at least one animal species tested is mammalian. Those skilled in the art regularly extrapolate doses for efficacy and avoiding toxicity to other species, including human. Before human studies of efficacy are undertaken, Phase I clinical studies help establish safe doses.\nas §8"}, "[8]": {"target": "T2, recombinant bacterially-purified mouse ΔDCN (Mus musculus, UniProt P28654)", "T2 construct": "cloning fragments encoding amino acids 1-354 and 45-354 of mouse DCN cDNA (OriGene); His6; made in house", "T2 sequence (P28654 45-354)": "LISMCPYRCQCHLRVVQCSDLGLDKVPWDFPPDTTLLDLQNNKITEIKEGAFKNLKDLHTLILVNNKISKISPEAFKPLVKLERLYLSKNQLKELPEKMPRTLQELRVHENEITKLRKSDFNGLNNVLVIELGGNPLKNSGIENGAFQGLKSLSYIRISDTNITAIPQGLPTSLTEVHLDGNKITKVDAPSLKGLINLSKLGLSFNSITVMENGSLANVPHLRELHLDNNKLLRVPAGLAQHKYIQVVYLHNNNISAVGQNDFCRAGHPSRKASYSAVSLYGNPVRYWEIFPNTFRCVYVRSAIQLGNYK", "experiment": "ELISA binding assay, ΔDCN", "conditions": "His6-tagged protein coated at 10 μg/ml", "description": "as §6"}, "[9]": {"target": "T3, glycosylated bovine DCN (bDCN*) (Bos taurus, UniProt P21793)", "T3 construct": "purchased Sigma-Aldrich", "T3 sequence (P21793 31-360)": "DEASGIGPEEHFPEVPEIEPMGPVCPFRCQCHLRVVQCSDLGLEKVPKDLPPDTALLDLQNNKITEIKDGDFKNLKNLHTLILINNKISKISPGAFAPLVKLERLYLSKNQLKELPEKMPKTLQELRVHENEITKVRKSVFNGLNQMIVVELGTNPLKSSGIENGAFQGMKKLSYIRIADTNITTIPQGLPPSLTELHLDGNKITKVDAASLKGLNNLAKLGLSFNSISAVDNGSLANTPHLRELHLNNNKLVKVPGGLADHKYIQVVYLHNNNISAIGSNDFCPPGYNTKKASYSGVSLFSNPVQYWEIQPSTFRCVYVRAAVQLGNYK", "experiment": "ELISA binding assay, glycosylated bovine DCN", "conditions": "compared with BSA background", "description": "as §6"}, "[10]": {"target": "T4, full-length glycosylated mouse DCN (mDCN*) (Mus musculus, UniProt P28654)", "T4 construct": "full-length glycosylated mouse DCN (mDCN*); purchased R&D Systems; host or cells: NS0", "T4 sequence (P28654 31-354)": "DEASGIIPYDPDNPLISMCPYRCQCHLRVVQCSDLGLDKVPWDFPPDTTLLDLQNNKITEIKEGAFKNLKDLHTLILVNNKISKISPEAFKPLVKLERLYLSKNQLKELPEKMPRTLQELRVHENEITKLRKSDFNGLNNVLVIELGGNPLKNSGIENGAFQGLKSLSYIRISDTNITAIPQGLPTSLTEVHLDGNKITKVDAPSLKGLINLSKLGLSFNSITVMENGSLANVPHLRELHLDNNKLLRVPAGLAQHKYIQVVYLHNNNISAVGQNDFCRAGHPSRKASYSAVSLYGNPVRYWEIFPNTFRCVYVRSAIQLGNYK", "experiment": "ELISA binding assay, glycosylated mouse DCN", "conditions": "compared with BSA background", "description": "as §6"}}, "note": "Where two headings read alike, the source gives them in different places.", "data": [{"molecule": "YKNVDSGG [WAT-2, used as control peptide]", "values": [{"measurement": "% in WAT", "setting": "[1]", "value": 2.9, "unit": "%"}, {"measurement": "% in LUNG", "setting": "[2]", "value": 0, "unit": "%"}, {"measurement": "Re-home to WAT (%)", "setting": "[3]", "value": 2.1, "unit": "%"}, {"measurement": "Re-home to Lung (%)", "setting": "[4]", "value": 2.9, "unit": "%"}, {"measurement": "binding to recombinant core mouse DCN (OD450)", "setting": "[5]", "value": "did not display DCN binding"}]}, {"molecule": "CC(C)C[C@@H](NC(=O)[C@@H](CCCCN)NC(=O)CCCCCNC(=O)[C@H]1CSSC[C@@H](N)C(=O)N[C@H](CO)C(=O)N[C@H](Cc2c[nH]c3ccccc23)C(=O)N[C@H](CCCCN)C(=O)N[C@H](Cc2ccc(O)cc2)C(=O)N[C@H](Cc2c[nH]c3ccccc23)C(=O)N[C@H](Cc2ccccc2)C(=O)NCC(=O)N[C@H](CCC(=O)O)C(=O)N1)C(=O)N[C@H](C)C(=O)N[C@H](CCCCN)C(=O)N[C@H](CC(C)C)C(=O)N[C@H](C)C(=O)N[C@H](CCCCN)C(=O)N[C@H](CCCCN)C(=O)N[C@H](CC(C)C)C(=O)N[C@H](C)C(=O)N[C@H](CCCCN)C(=O)N[C@H](CC(C)C)C(=O)N[C@H](C)C(=O)N[C@H](CCCCN)C(=O)O", "note": "[WAT7-KLAKLAK2]", "values": [{"measurement": "apoptotic cell death in kidney or peripheral blood", "setting": "[6]", "value": "no apoptotic cell death was identified"}, {"measurement": "MTD", "setting": "[7]", "value": "No MTD was reached"}, {"measurement": "MTD", "setting": "[7]; mouse, in vivo, read-out: MTD", "value": "> 100", "unit": "mg/kg"}]}, {"molecule": "Resistin: FLAG-tagged mouse resistin produced in HEK293 cells; WAT-secreted adipokine, ligand of ΔDCN (protein) SSMPLCPIDEAIDKKIKQDFNSLFPNAIKNIGLNCWTVSSRGKLASCPEGTAVLSCSCGSACGSWDIREEKVCHCQCARIDWTAARCCKLQVAS", "values": [{"measurement": "binding to ΔDCN (OD450)", "setting": "[8]", "value": "dose-dependent"}, {"measurement": "binding to glycosylated bovine DCN (OD450)", "setting": "[9]", "value": "completely inefficient in binding"}, {"measurement": "binding to glycosylated mouse DCN (OD450)", "setting": "[10]", "value": "completely inefficient in binding"}]}]}
